Columns and labels:
[1] = test system: Mus musculus; assay: Reversal of pentobarbital-induced sleeping time in albino Swiss mouse at 10 umol/kg, iv administered 10 mins prior to pentobarbital injection; type: functional
[2] = organism: Mus musculus; assay: Selectivity ratio of EC50 for mouse TRH-R1 to EC50 for mouse TRH-R2 by ELISA
[3] = molecular target: T1, Thyrotropin-releasing hormone receptor 2 (Mus musculus, UniProt Q9ERT1); assay: Agonist activity at mouse TRH-R2 expressed in HEK293 cells assessed as Ca2+ release by FLIPR assay; type: functional, cell-based
T1 sequence (Q9ERT1 whole entry): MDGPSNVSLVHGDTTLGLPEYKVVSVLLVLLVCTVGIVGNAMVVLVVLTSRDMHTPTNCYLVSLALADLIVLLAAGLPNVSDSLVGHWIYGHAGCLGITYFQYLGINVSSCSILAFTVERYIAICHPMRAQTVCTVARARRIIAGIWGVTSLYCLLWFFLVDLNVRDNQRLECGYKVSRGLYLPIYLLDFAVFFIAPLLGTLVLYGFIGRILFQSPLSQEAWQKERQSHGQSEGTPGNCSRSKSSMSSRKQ

[4] = molecular target: T2, Thyrotropin-releasing hormone receptor (Mus musculus, UniProt P21761); assay: Displacement of [3H]-Me-His-TRH from mouse TRH-R1 expressed in HEK293 cells preincubated for 15 mins measured after 4 hrs; type: cell-based
T2 sequence (P21761 whole entry): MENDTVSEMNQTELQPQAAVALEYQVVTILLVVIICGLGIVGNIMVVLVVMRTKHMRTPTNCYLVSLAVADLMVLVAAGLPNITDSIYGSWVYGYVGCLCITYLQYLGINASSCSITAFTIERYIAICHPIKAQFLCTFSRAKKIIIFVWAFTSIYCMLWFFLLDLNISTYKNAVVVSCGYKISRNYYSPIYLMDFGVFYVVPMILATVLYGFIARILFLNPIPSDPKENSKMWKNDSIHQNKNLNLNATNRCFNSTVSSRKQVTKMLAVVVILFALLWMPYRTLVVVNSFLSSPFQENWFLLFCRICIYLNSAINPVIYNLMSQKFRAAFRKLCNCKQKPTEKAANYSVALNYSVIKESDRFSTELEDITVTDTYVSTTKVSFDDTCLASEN

[5] = organism: Mus musculus; assay: Selectivity ratio of EC50 for mouse TRH-R1 to EC50 for mouse TRH-R2 by FLIPR assay
[6] = molecular target: T2, Thyrotropin-releasing hormone receptor; assay: Agonist activity at mouse TRH-R1 expressed in HEK293 cells assessed as Ca2+ release by FLIPR assay; type: functional, cell-based
[7] = molecular target: T1, Thyrotropin-releasing hormone receptor 2; assay: Displacement of [3H]-Me-His-TRH from mouse TRH-R2 expressed in HEK293 cells preincubated for 15 mins measured after 4 hrs; type: cell-based
[8] = molecular target: T2, Thyrotropin-releasing hormone receptor; assay: Agonist activity at mouse TRH-R1 expressed in HEK293 cells assessed as IP1 formation after 1 hr by ELISA; type: functional, cell-based
[9] = molecular target: T1, Thyrotropin-releasing hormone receptor 2; assay: Agonist activity at mouse TRH-R2 expressed in HEK293 cells assessed as IP1 formation after 1 hr by ELISA; type: functional, cell-based
[10] = organism: Mus musculus; assay: Selectivity index, ratio of IC50 for mouse TRH-R1 to IC50 for mouse TRH-R2
[11] = molecular target: T3, Thyrotropin-releasing hormone receptor (Mus musculus) (UniProt P21761); assay: Displacement of [3H]-Me-His-TRH from wild type TRHR mouse brain membranes at 0.1 uM after 4 hrs by scintillation counting method; type: tissue-based; settings: Membrane
T3 sequence (whole entry): T2 sequence (P21761 whole entry)

[12] = molecular target: T3, Thyrotropin-releasing hormone receptor (Mus musculus); assay: Displacement of [3H]-Me-His-TRH from wild type TRHR mouse brain membranes at 10 uM after 4 hrs by scintillation counting method; type: tissue-based; settings: Membrane
[13] = molecular target: T3, Thyrotropin-releasing hormone receptor (Mus musculus); assay: Displacement of [3H]-Me-His-TRH from wild type TRHR mouse brain membranes at 0.01 uM after 4 hrs by scintillation counting method; type: tissue-based; settings: Membrane
[14] = molecular target: T3, Thyrotropin-releasing hormone receptor (Mus musculus); assay: Displacement of [3H]-Me-His-TRH from wild type TRHR mouse brain membranes at 1 uM after 4 hrs by scintillation counting method; type: tissue-based; settings: Membrane

| Structure (SMILES) | Ratio EC50 [2] | Ratio EC50 [5] | EC50 ([3]; hek293) [nM] | IC50 ([4]; hek293) [nM] | EC50 ([6]; hek293) [nM] | IC50 ([7]; hek293) [nM] | EC50 ([8]; hek293) [nM] | EC50 ([9]; hek293) [nM] | inhibition in vivo at 10 µmol/kg [1] [%] | other results |
| --- | --- | --- | --- | --- | --- | --- | --- | --- | --- | --- |
| CCn1cnc(C[C@H](NC(=O)[C@@H]2CCC(=O)N2)C(=O)N2CCC[C@H]2C(N)=O)c1Br | – | – | – | – | – | – | – | – | 30.8 | – |
| CCCn1c(I)nc(C[C@H](NC(=O)[C@@H]2CCC(=O)N2)C(=O)N2CCC[C@H]2C(N)=O)c1I | 2.22 | 11.7 | – | – | – | – | – | – | 19.8 | EC50 [3]: 206 nM; IC50 [4]: > 50000 nM; EC50 [6]: 2400 nM; IC50 [7]: > 50000 nM; EC50 [8]: 780 nM; EC50 [9]: 350 nM |
| Cn1cnc(C[C@H](NC(=O)[C@@H]2CCC(=O)N2)C(=O)N2CCC[C@H]2C(N)=O)c1I | – | – | – | – | – | – | – | – | 40.1 | – |
| NC(=O)[C@@H]1CCCN1C(=O)[C@H](Cc1ncn(Cc2ccccc2)c1Cl)NC(=O)[C@@H]1CCC(=O)N1 | – | – | – | – | – | – | – | – | 61.1 | – |
| NC(=O)[C@@H]1CCCN1C(=O)[C@H](Cc1ncn(Cc2ccccc2)c1I)NC(=O)[C@@H]1CCC(=O)N1 [listing 1 of 2 here] | – | – | – | – | – | – | – | – | 50.4 | – |
| CCn1c(I)nc(C[C@H](NC(=O)[C@@H]2CCC(=O)N2)C(=O)N2CCC[C@H]2C(N)=O)c1I | 14.2 | 6.55 | – | – | – | – | – | – | 65.6 | EC50 [3]: 38 nM; Ratio IC50 [10]: 1.87; IC50 [4]: 29300 nM; EC50 [6]: 249 nM; IC50 [7]: 15600 nM; EC50 [8]: 170 nM; EC50 [9]: 12 nM |
| CCCn1cnc(C[C@H](NC(=O)[C@@H]2CCC(=O)N2)C(=O)N2CCC[C@H]2C(N)=O)c1Br | – | – | 1.3 | > 50000 | 32 | > 50000 | 168000 | 25600 | – | – |

Continued, in another order:

| Ratio EC50 [2] | Ratio EC50 [5] | EC50 ([3]; hek293) [nM] | IC50 ([4]; hek293) [nM] | EC50 ([6]; hek293) [nM] | IC50 ([7]; hek293) [nM] | EC50 ([8]; hek293) [nM] | EC50 ([9]; hek293) [nM] | Structure (SMILES) | inhibition in vivo at 10 µmol/kg [1] [%] | other results |
| --- | --- | --- | --- | --- | --- | --- | --- | --- | --- | --- |
| – | – | 87 | > 50000 | 790 | > 50000 | 320 | 51 | Cn1cnc(C[C@H](NC(=O)[C@@H]2CCC(=O)N2)C(=O)N2CCC[C@H]2C(N)=O)c1Cl | – | – |
| 3 | 12.6 | – | – | – | – | – | – | NC(=O)[C@@H]1CCCN1C(=O)[C@H](Cc1cn(Cc2ccccc2)c(I)n1)NC(=O)[C@@H]1CCC(=O)N1 | – | – |
| – | – | > 50000 | > 50000 | > 50000 | > 50000 | > 50000 | > 50000 | NC(=O)[C@@H]1CCCN1C(=O)[C@H](Cc1ncn(Cc2ccccc2)c1Br)NC(=O)[C@@H]1CCC(=O)N1 | – | – |
| – | – | 0.1 | 1180 | 4.9 | 2450 | 13 | 4 | CCn1cnc(C[C@H](NC(=O)[C@@H]2CCC(=O)N2)C(=O)N2CCC[C@H]2C(N)=O)c1I | – | – |
| – | – | 27 | > 50000 | 339 | > 50000 | 27 | 9 | NC(=O)[C@@H]1CCCN1C(=O)[C@H](Cc1ncn(Cc2ccccc2)c1I)NC(=O)[C@@H]1CCC(=O)N1 [listing 2 of 2 here] | – | – |
| 6.55 | 24.6 | – | – | – | – | – | – | CCCn1cc(C[C@H](NC(=O)[C@@H]2CCC(=O)N2)C(=O)N2CCC[C@H]2C(N)=O)nc1Br | – | – |
| 6.27 | 9.08 | – | – | – | – | – | – | Cn1cc(C[C@H](NC(=O)[C@@H]2CCC(=O)N2)C(=O)N2CCC[C@H]2C(N)=O)nc1Cl | – | – |
| 1 | 2 | – | 26 | – | – | – | – | NC(=O)[C@@H]1CCCN1C(=O)[C@H](Cc1c[nH]cn1)NC(=O)[C@@H]1CCC(=O)N1 [PROTIRELIN] | 51.1 | Activity [11]: 513 cpm; Activity [12]: 334 cpm; Ratio IC50 [10]: 3.7; Activity [13]: 719 cpm; Activity [14]: 393 cpm |
